This passage reports EC50 and IC50 results from patent US20230339915A1 (Vertex Pharmaceuticals Incorporated, priority 2020, published 2023).

Assay [1] concerns the target NL20 human bronchial epithelial cells expressing human Z-AAT (Homo sapiens (Human), UniProt P01009, E366K). Kind of assay: AAT Function Assay (MSD Assay NL20-SI Cell Line). Format: cell-based. The following applies: functionally active AAT (AAT-hNE complex, MSD) in supernatant of NL20 cells expressing human Z-AAT; read-out: NL20 Functional EC50. The method, boiled down: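 Secreted active Z-AAT was measured by MSD electrochemiluminescence: supernatants (45-fold total dilution) were incubated with human neutrophil elastase to form AAT–elastase complexes, captured by goat anti-AAT and detected with labelled anti-elastase. Cells were doxycycline-induced (0.1 μM) NL20 bronchial cells treated with compound overnight; M-AAT standard curve.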

The target in assay [2] is purified Z-AAT protein from human plasma (Homo sapiens (Human), UniProt P01009, E366K). The experiment in a line: Biochemical Assay (Z-AAT Elastase Activity Assay). The following applies: purified Z-AAT pre-incubated with compound 1 hour, then human neutrophil elastase and fluorescent substrate. The method, boiled down: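 Purified plasma Z-AAT (20 nM) preincubated with compounds 1 h at room temperature, then 3 nM human neutrophil elastase added in PBS + 0.01% BRIJ35 for 30 min to form suicide complex. Residual elastase activity read immediately by fluorescence after adding 300 μM MeOSuc-AAPV-AMC substrate solution.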
purified Z-AAT protein from human plasma, sequence (P01009 25-418 E366K limits assumed): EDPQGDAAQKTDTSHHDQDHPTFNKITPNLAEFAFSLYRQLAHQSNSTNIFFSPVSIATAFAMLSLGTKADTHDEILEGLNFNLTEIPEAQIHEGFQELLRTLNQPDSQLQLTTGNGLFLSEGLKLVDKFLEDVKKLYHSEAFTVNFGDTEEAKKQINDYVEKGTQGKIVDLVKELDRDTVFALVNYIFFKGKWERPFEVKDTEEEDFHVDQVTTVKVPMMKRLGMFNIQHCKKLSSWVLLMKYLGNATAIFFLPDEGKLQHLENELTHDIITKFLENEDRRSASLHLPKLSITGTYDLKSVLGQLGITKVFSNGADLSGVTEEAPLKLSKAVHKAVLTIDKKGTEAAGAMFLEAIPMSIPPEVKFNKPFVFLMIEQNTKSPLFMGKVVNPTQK

The structures appear in SMILES notation.

NL20 human bronchial epithelial cells expressing human Z-AAT, sequence (P01009 25-418 E366K limits assumed): as above

A word on the EC50: it is the concentration giving half of the maximal effect. Usually IC50 stands for the midpoint of a concentration-inhibition curve. Turning to `CC(C)c1c([C@H]2C[C@@H](C(=O)O)C2)c2cc(O)ccc2n1-c1ccc(F)c(F)c1` [Compound 142, cis-3-(1-(3,4-difluorophenyl)-5-hydroxy-2-isopropyl-1H-indol-3-yl)cyclobutane-1-carboxylic acid], the EC50 in assay [1] is more than 2 µM. In addition, the concentration for half-maximal inhibition (IC50) in assay [2] is more than 30 µM.

In the case of `Cc1cc(-n2c(C3CCOCC3)c([C@H]3C[C@@H](C(=O)O)C3)c3cc(O)ccc32)ccn1` [Compound 143], the EC50 in assay [1] was more than 2 µM. In assay [2], the IC50 was more than 30 µM.

Regarding `Cc1cc(-n2c(C(C)C)c([C@H]3C[C@@H](C(=O)O)C3)c3cc(O)ccc32)ccn1` [Compound 144], in assay [1], the EC50 is more than 2 µM. Besides, the IC50 in assay [2] is more than 30 µM.

With `Cc1cc(-n2c(C(C)C)c([C@H]3C[C@H](C(=O)O)C3)c3cc(O)ccc32)ccc1F` [Compound 145], in assay [1], the EC50 fell in the range of 0.5 to 2 µM. Moreover, the IC50 in assay [2] is more than 5 µM.

Regarding `Cc1cc(-n2c(C(C)C)c([C@H]3C[C@@H](C(=O)O)C3)c3cc(O)ccc32)ccc1F` [Compound 146], the EC50 in assay [1] lay in the range of 0.5 to 2 µM. In assay [2], the IC50 was more than 30 µM.

With `Cc1cc(-n2c(C(C)C)c(C3CN(CC(=O)O)C3)c3cc(O)ccc32)ccc1F` [Compound 147], the EC50 in assay [1] is more than 2 µM. Also, in assay [2], the IC50 was more than 30 µM.

`Cc1cc(-n2c(C(C)C)c(C3CC4(C3)CC(F)(C(=O)O)C4)c3cc(O)ccc32)ccc1F` (stereo not shown) [Compound 148, 2-fluoro-6-(1-(4-fluoro-3-methylphenyl)-5-hydroxy-2-isopropyl-1H-indol-3-yl)spiro[3.3]heptane-2-carboxylic acid]: the EC50 in assay [1] is less than 0.5 µM. In addition, in assay [2], the IC50 was less than 2 µM.

As for `Cc1cc(-n2c(C(C)C)c(C3CC4(C3)CC(F)(C(=O)O)C4)c3cc(O)ccc32)ccc1F` (stereo not shown) [Compound 149, 2-fluoro-6-(1-(4-fluoro-3-methylphenyl)-5-hydroxy-2-isopropyl-1H-indol-3-yl)spiro[3.3]heptane-2-carboxylic acid], in assay [1], the EC50 lay in the range of 0.5 to 2 µM. Moreover, the IC50 in assay [2] was in the range of 2 to 5 µM.

On to `COC(C)(Cc1c(C(C)C)n(-c2ccc(F)c(C)c2)c2ccc(O)cc12)C(=O)O` (stereo not shown) [Compound 151, 3-(1-(4-fluoro-3-methylphenyl)-5-hydroxy-2-isopropyl-1H-indol-3-yl)-2-methoxy-2-methylpropanoic acid], for which the EC50 in assay [1] is more than 2 µM. Also, the IC50 in assay [2] was more than 30 µM.

As to `Cc1cc(-n2c(C(C)C)c(CC(C)(O)C(=O)O)c3cc(O)ccc32)ccc1F` (stereo not shown) [Compound 152, 3-[1-(4-fluoro-3-methyl-phenyl)-5-hydroxy-2-isopropyl-indol-3-yl]-2-hydroxy-2-methyl-propanoic acid], the EC50 in assay [1] was more than 2 µM. In addition, the IC50 in assay [2] is more than 30 µM.

For the compound `Cc1cc(-n2c(C(C)C)c(CC(=O)O)c3cc(O)ccc32)ccc1F` [Compound 153, 2-(1-(4-fluoro-3-methylphenyl)-5-hydroxy-2-isopropyl-1H-indol-3-yl)acetic acid], in assay [1], the EC50 was more than 2 µM. Also, the IC50 in assay [2] is more than 30 µM.

Regarding `Cc1cc(-n2c(C3CC3)c(C(Cc3ccccc3)C(=O)O)c3cc(O)ccc32)ccc1F` (stereo not shown) [Compound 156, 2-(2-cyclopropyl-1-(4-fluoro-3-methylphenyl)-5-hydroxy-1H-indol-3-yl)-3-phenylpropanoic acid], in assay [1], the EC50 was more than 2 µM. The IC50 in assay [2] is more than 30 µM.

As to `CCC(C(=O)O)c1c(C)n(-c2ccc(F)c(C)c2)c2ccc(O)cc12` (stereo not shown) [Compound 158], the EC50 in assay [1] was more than 2 µM. Besides, in assay [2], the IC50 is more than 30 µM.

With `Cc1cc(-n2c(C)c(C(C)C(=O)O)c3cc(O)ccc32)ccc1F` (stereo not shown) [Compound 159], in assay [1], the EC50 is more than 2 µM. In assay [2], the IC50 was more than 30 µM.

For the compound `Cc1cc(-n2c(C3CC3)c(CC(=O)O)c3cc(O)ccc32)ccc1F` [Compound 160], in assay [1], the EC50 is more than 2 µM. The IC50 in assay [2] was more than 30 µM.

Regarding `Cc1cc(-n2c(C)c(CC(=O)O)c3cc(O)ccc32)ccn1` [Compound 161], the EC50 in assay [1] was more than 2 µM. The IC50 in assay [2] was more than 30 µM.

Turning to `Cc1cc(-n2c(C)c(CC(=O)O)c3cc(O)ccc32)ccc1F` [Compound 162], in assay [1], the EC50 was more than 2 µM. Besides, the IC50 in assay [2] is more than 30 µM.

Turning to `Cc1cc(-n2c(C(C)C)c(CCC(=O)O)c3cc(O)c(F)cc32)ccc1F` [Compound 163, 3-(6-fluoro-1-(4-fluoro-3-methylphenyl)-5-hydroxy-2-isopropyl-1H-indol-3-yl)propanoic acid], the EC50 in assay [1] is less than 0.5 µM. The IC50 in assay [2] is more than 30 µM.

As to `COCC(C)(C)c1c(-c2ccc(C(=O)O)cc2)c2cc(O)ccc2n1-c1ccc(F)cc1` [Compound 164, 4-(1-(4-fluorophenyl)-5-hydroxy-2-(1-methoxy-2-methylpropan-2-yl)-1H-indol-3-yl)benzoic acid], the concentration giving a half-maximal response (EC50) in assay [1] is less than 0.5 µM. In assay [2], the IC50 was less than 2 µM.

Regarding `CC(C)(CC#N)c1c(-c2ccc(C(=O)O)cc2)c2cc(O)ccc2n1-c1ccc(F)cc1` [Compound 165, 4-(2-(1-cyano-2-methylpropan-2-yl)-1-(4-fluorophenyl)-5-hydroxy-1H-indol-3-yl)benzoic acid], the EC50 in assay [1] was in the range of 0.5 to 2 µM. In addition, the IC50 in assay [2] was less than 2 µM.

On to `Cc1cc(-n2c(C3CCOCC3)c(-c3ccc(C(=O)O)cc3)c3cc(O)ccc32)ccc1F` [Compound 166, 4-(1-(4-fluoro-3-methylphenyl)-5-hydroxy-2-(tetrahydro-2H-pyran-4-yl)-1H-indol-3-yl)benzoic acid], for which, in assay [1], the EC50 was more than 2 µM. For the same compound, the IC50 in assay [2] is more than 30 µM.

In the case of `Cc1cc(-n2c(C(C)C)c(-c3cccc(C(=O)O)c3)c3cc(O)ccc32)ccc1F` [Compound 168], the EC50 in assay [1] was less than 0.5 µM. Moreover, the IC50 in assay [2] lay within 2 to 5 µM.

For `Cc1cc(-n2c(C(C)C)c(-c3ccccc3C(=O)O)c3cc(O)ccc32)ccc1F` [Compound 169], the EC50 in assay [1] is more than 2 µM. Besides, in assay [2], the IC50 is more than 30 µM.

With `Cc1cc(-n2c(C(C)C)c(-c3cncc(C(=O)O)c3)c3cc(O)ccc32)ccc1F` [Compound 172], the EC50 in assay [1] lay in the range of 0.5 to 2 µM. Moreover, in assay [2], the IC50 lay within 2 to 5 µM.

With `Cc1nccc(-n2c(C(C)C)c(-c3ccc(C(=O)O)cc3)c3cc(O)ccc32)n1` [Compound 174], in assay [1], the EC50 was more than 2 µM. Also, the IC50 in assay [2] was more than 30 µM.

`Cc1cc(-n2c(C#N)c(-c3ccc(C(=O)O)cc3)c3cc(O)ccc32)ccc1F` [Compound 175]: the EC50 in assay [1] lay in the range of 0.5 to 2 µM. For the same compound, the IC50 in assay [2] was more than 30 µM.

`Cc1cc(-n2c(C(C)C)c(C(C)CC(=O)O)c3cc(O)ccc32)ccc1F` (stereo not shown) [Compound 176]: in assay [1], the EC50 was in the range of 0.5 to 2 µM. The IC50 in assay [2] is more than 30 µM.

With `COCC(C)(C)c1c(-c2ccc(C(=O)O)cc2)c2cc(O)c(Cl)cc2n1-c1ccc(F)cc1` [Compound 177, 4-(6-chloro-1-(4-fluorophenyl)-5-hydroxy-2-(1-methoxy-2-methylpropan-2-yl)-1H-indol-3-yl)benzoic acid], the EC50 in assay [1] was less than 0.5 µM. In assay [2], the IC50 is less than 2 µM.

`COCC(C)(C)c1c(-c2ccc(C(=O)O)cc2)c2c(Cl)c(O)ccc2n1-c1ccc(F)cc1` [Compound 178, 4-[4-chloro-1-(4-fluorophenyl)-5-hydroxy-2-(2-methoxy-1,1-dimethyl-ethyl)indol-3-yl]benzoic acid]: the EC50 in assay [1] is less than 0.5 µM. For the same compound, in assay [2], the IC50 is less than 2 µM.

With `Cc1cc(-n2c(C(C)C)c(-c3cc(C(=O)O)[nH]n3)c3cc(O)ccc32)ccc1F` [Compound 179, 3-[1-(4-fluoro-3-methyl-phenyl)-5-hydroxy-2-isopropyl-indol-3-yl]-1H-pyrazole-5-carboxylic acid], the EC50 in assay [1] is more than 2 µM. For the same compound, in assay [2], the IC50 was more than 30 µM.

For `CC(C)c1c(-c2cccc(C(=O)O)c2)c2cc(O)ccc2n1C1CC(F)(F)C1` [Compound 180, 3-(1-(3,3-difluorocyclobutyl)-5-hydroxy-2-isopropyl-1H-indol-3-yl)benzoic acid], in assay [1], the EC50 is more than 2 µM. For the same compound, the IC50 in assay [2] was more than 30 µM.

On to `Cc1cc(-n2c(C(C)C)c(/C=C/C(=O)O)c3cc(O)c(F)cc32)ccc1F` [Compound 181, (E)-3-(6-fluoro-1-(4-fluoro-3-methylphenyl)-5-hydroxy-2-isopropyl-1H-indol-3-yl)acrylic acid], for which the EC50 in assay [1] is more than 2 µM. In addition, the IC50 in assay [2] was more than 5 µM.

Consider `Cc1c(C2(C#N)CC2)c2cc(O)ccc2n1-c1ccc(F)cc1` [Compound 184, 1-(1-(4-fluorophenyl)-5-hydroxy-2-methyl-1H-indol-3-yl)cyclopropane-1-carbonitrile], for which, in assay [1], the EC50 is more than 2 µM. Besides, the IC50 in assay [2] is more than 5 µM.

Turning to `CC(C)c1c(C#N)c2cc(O)ccc2n1-c1ccc(F)cc1` [Compound 185, 1-(4-fluorophenyl)-5-hydroxy-2-isopropyl-1H-indole-3-carbonitrile], the EC50 in assay [1] is less than 0.5 µM. Further, the IC50 in assay [2] was more than 30 µM.

Regarding `CC(C)(C)c1c(C#N)c2cc(O)ccc2n1-c1ccc(F)cc1` [Compound 186], the EC50 in assay [1] was less than 0.5 µM. In assay [2], the IC50 is more than 5 µM.

Turning to `Cc1cc(-n2c(C(C)C)c(C#N)c3cc(O)ccc32)ccc1F` [Compound 187], the EC50 in assay [1] is 0.5 to 2 µM. Further, the IC50 in assay [2] is more than 30 µM.

As to `N#Cc1c(C2CCC2)n(-c2ccc(F)cc2)c2ccc(O)cc12` [Compound 188], in assay [1], the EC50 was 0.5 to 2 µM. The IC50 in assay [2] was more than 30 µM.

As to `C/C=C/c1c(C#N)c2cc(O)ccc2n1-c1ccc(F)cc1` [Compound 191, 1-(4-fluorophenyl)-5-hydroxy-2-[(E)-prop-1-enyl]indole-3-carbonitrile], the EC50 in assay [1] was more than 2 µM. The IC50 in assay [2] was more than 30 µM.
